From patent US9243037B2, “Gramicidin a mutants that function as antibiotics with improved solubility and reduced toxicity” (Trustees of Boston College, priority 2011, dated 2016)
Values after ≈ are worked out from the molar mass of the structure shown. “Also recorded” adds a separate entry of the source. Like-named read-outs stand apart in the source and are kept apart here. Marks after values point to notes of the source that are not given here.

Key:
physchem = assay type: physicochemical
Procedure, shortened: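 Peptide DMSO stock (6.0-8.0 mM) diluted 100-fold into 10 mM HEPES, pH 7.0, giving 1% DMSO; sonicated 30 min, centrifuged 14,000 rpm for 10 min. Supernatant concentration determined from tryptophan absorbance at 280 nm (ε=22760 M−1 cm-1).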

HeLa = experiment: MTT toxicity assay; assay type: cell-based, human
Procedure: (§1) Toxicity of gA-WT and gA-5 was tested against two human cancer cell lines, HeLa and MCF-7 (gifts from Professor Eranthie Weerapana at Boston College) by using the MTT assay as described in the protocol provided by Invitrogen.[5] HeLa cells (in DMEM high glucose media with 10% FBS, 1% Pen/Strep, 37° C., 5% CO2) and MCF-7 cells (in RPMI media with 10% FBS and 1% Pen/Strep, 37° C., 5% CO2) were grown to about 80% confluent before removed from the surface of a 20 cm petri-dish with […] with EDTA (3-5 mins, 37° C., 5% CO2). Cells were pelleted (3,500 rpm, 5 mins at 4° C.), and plated at 15,000 cells per well (100 μL per well), then incubated for 48 hrs before peptide addition.
(§2) Stock solutions of gA in DMSO with varied concentrations were prepared so that for each peptide concentration the total volume of DMSO addition was kept constant at 1% (v/v). For each peptide concentration, samples were set up as four replicates. Control wells were loaded with 1 μL of DMSO. After overnight incubation, cells were washed once with PBS before being incubated for 4 hrs with 110 μL of 12 mM 3-(4,5-Dimethylthiazol-2-yl)-2,5-diphenyltetrazolium bromide (MTT) dissolved in RPMI media. The MTT assay was quenched with 100 μL of 10% SDS in 0.01 M HCl and allowed to incubate overnight before absorbance at 570 nm was recorded. Wells were averaged and standard deviations determined for each peptide concentration. Data were normalized to the DMSO control to give % cell survival (see FIG. 3).

MCF-7 = experiment: MTT toxicity assay; assay type: cell-based, human
Procedure: as §1, §2

[1] = Peptide binding onto membranes (Trp fluorescence); settings: negatively charged POPC/POPG vesicles; in words
[2] = K+ leakage from liposomes; assay type: biochemical; settings: FIG. 4B; in words
Procedure: A chloroform solution containing 76 mg of POPC (for POPC LUVs) or a chloroform/meol (1/1) containing 38 mg of POPC and 38.5 mg POPG sodium salt (for POPC/POPG LUVs, POPC:POPG=1:1) was dried under reduced pressure to form a thin film, which was then […] with 2 mL aqueous buffer: (1) 10 mM HEPES, 150 mM KCl, pH 7.0 for K+ leakage assay; (2) 10 mM TES, 100 mM sodium citrate, 50 mM TbCl3, pH 7.0 for Tb3+ leakage assay; (3) 10 mM HEPES, 150 mM NaCl, pH 7.0 for peptide binding assay. After 20 cycles of freezing and thawing, the liposome suspension was extruded 21 times through a 100 nm polycarbonate membrane (LIPOSOFAST Mini Extrusion system, Avanti Polar Lipids; Whatman Nuclepore Track-Etch Membrane) at RT. Free K+ or Tb3+ were removed by gel filtration (ÄKTA FPLC with HIPREP™ 16/60 Sephacryl TM-S-500HR column) using Buffer A for (1) and (3) or Buffer B for (2) as the eluents. The lipid concentration was determined by the Stewart assay and the size of liposome was confirmed by Dynamic Light Scattering (DLS, DYNAPRO NANOSTAR, Wyatt, Santa Barbara, Calif.). After gel filtration the polydispersity of all liposome are below 20%.
The K+ leakage from liposomes was determined by a potassium ion selective electrode (K-ISE, Cole-Parmer, Vernon Hills, Ill.). […] Three minutes after each peptide addition, the K+ concentration was measured and reported as the K-ISE potential. […]

[3] = K+ release from liposomes, lipid not specified; assay type: biochemical; settings: in words
Procedure: With the D-Lys residues incorporated towards the C-terminus, the gA peptide analogs described herein display amphipathic sequences. Since many amphipathic peptides are known to cause membrane damage through a detergent-like mechanism instead of forming specific channels,[19] it was further examined whether it is the case with the gA peptide analogs provided herein. Toward this end, the ion selectivity of gA-3, 4, and 5 was assessed by using liposomes encapsulating K+ and Tb3+ respectively. […] The wild type like channel structure of the D-Lys mutants is further supported by the fact that gA-5 and gA-WT share similar signatures in their circular dichroism spectra (FIG. 11). This exclusive leakage of monovalent cations presents a great advantage of the gA analog peptides described herein in comparison to the majority of AMPs, which often cause catastrophic membrane collapse to release all bacterial cellular content, leading to potential complications of over-stimulated immune response.
The K+ leakage from liposomes was determined by a potassium ion selective electrode (K-ISE, Cole-Parmer, Vernon Hills, Ill.). The electrode was calibrated each day before experiments. A liposome solution in Buffer A (2 mL, 500 μM POPC or POPC/POPG⊃10 mM HEPES, 150 mM KCl, pH 7.0) was stirred at constant speed and peptide at various concentration (1 μL in DMSO) was added accumulatively. Three minutes after each peptide addition, the K+ concentration was measured and reported as the K-ISE potential. At the end of each experiment, gA-WT stock (1 μL, 1 mM) was added to induce 100% K+ leakage. The potential reported by the K-ISE was plotted against peptide concentration after the background noise (caused by DMSO addition) was subtracted and normalized to 0-100%.

[4] = Peptide distribution in EYPC LUVs by Trp fluorescence; assay type: binding; settings: peptide added to LUVs; in words
Procedure: The peptides distribution was determined by monitoring Trp fluorescence and the channel activity was determined by monitoring the proton leakage from LUVs using a pH sensitive fluorescence dye HPTS. […]

[5] = Proton leakage from EYPC vesicles (HPTS); assay type: biochemical; settings: peptide premixed with lipids; in words
Procedure: To confirm that lack of binding causes loss of membrane activity, we decided to premix the peptides and lipids in organic solvent and then dried out the mixture before hydration. Then, the peptides would be trapped into the bound form upon vesicle formation. The peptides distribution was determined by monitoring Trp fluorescence and the channel activity was determined by monitoring the proton leakage from LUVs using a pH sensitive fluorescence dye HPTS. Peptides 10, 12, 14K and 10, 12, 14 M gA were chosen to mix with neutral lipids EYPC.

[6] = tested on: Staphylococcus aureus (ATCC 6538)
[7] = tested on: Streptococcus pyogenes (ATCC 19615)

SMILES: CC(C)C[C@@H](NC(=O)[C@H](C)NC(=O)CNC(=O)[C@@H](NC=O)C(C)C)C(=O)N[C@@H](C)C(=O)N[C@@H](C(=O)N[C@H](C(=O)N[C@@H](C(=O)N[C@@H](Cc1c[nH]c2ccccc12)C(=O)N[C@H](CCCCN)C(=O)N[C@@H](Cc1c[nH]c2ccccc12)C(=O)N[C@H](CCCCN)C(=O)N[C@@H](Cc1c[nH]c2ccccc12)C(=O)N[C@H](CCCCN)C(=O)N[C@@H](Cc1c[nH]c2ccccc12)C(=O)NCCO)C(C)C)C(C)C)C(C)C (racemic) [gA-5, formyl-V-G-A-dL-A-dV-V-dV-W-dK-W-dK-W-dK-W-NHCH2CH2OH]
- solubility compared with the wild type (physchem): three orders of magnitude
- water solubility, fold higher than wild-type Gramicidin A (physchem): ~1500 fold
- solubility at 30 mins (physchem; pH 7): ~100 µM (≈ 193 µg/mL)
- toxicity, cell survival (MTT) (HeLa): essentially unaffected
- toxicity, cell survival (MTT) (MCF-7): essentially unaffected
- apparent dissociation constant (Kd) / binding [1]: dropped by a marginal four fold
- K+ leakage from negatively charged liposomes [2]: lack of K+ leakage
- K+ release from LUVs [3]: potent activity in K+ release; also recorded: complete K^+ leakage
- binding to EYPC LUVs [4]: neither peptides bound to EYPC LUVs upon addition
- proton leakage from EYPC LUVs [5]: caused proton leakage
- MICs S. Aureus ([6]; ATCC 6538): > 10 µM
- MIC relative to wild-type Gramicidin A ([6]; S. Aureus): much higher MIC
- MICs S. Aureus ([6]; Table 2, standard micro-dilution): >10 ^[e] μM
- MICs S. Pyogenes ([7]; ATCC 19615): 0.62 µM
- MIC relative to wild-type Gramicidin A ([7]; S. Pyogenes): equivalent to or ˜2-fold higher
- antibacterial activity ([7]; S. pyogenes, in words): highly potent
